These are literature values, as cited in patent publication US4399125A, “Novel antagonists of the antidiuretic action of arginine vasopressin” (priority 1981, dated 1983).

In series [1] the test system is oxytocic response to oxytocin. As to conditions: literature; cited from earlier work.
Series [2] deals with antidiuretic activity (urine flow). Particulars: prior art statement; cited from earlier work.
Series [3] relates to vasoconstrictive action. As to conditions: compared with natural vasopressins; cited from earlier work.
Series [4] concerns vasopressor response to AVP. As to conditions: prior art statement; cited from earlier work.
Series [5] relates to antidiuretic response to ADH (arginine vasopressin). Particulars: earlier work of Manning et al. (in press); cited from earlier work.

Turning to 1-deamino-oxytocin [dOT], in series [1], the “oxytocic activity (agonist / antagonist, in words)” value was “highly potent oxytocic agonist”.

As for “1-deamino[4-valine, 8-D-arginine] vasopressin [dVDAVP]”, in series [2], the “antidiuretic potency / activity (in words)” value was “highly active and selective antidiuretic peptide”.

With 2-phenylalanine-8-ornithine vasopressin, the “antidiuretic potency / activity (in words)” value in series [2] is on record as “low antidiuretic activity”. Also, the vasoconstrictive action entry in series [3] is “equal to that of natural vasopressins”.

For the substance “[1-(β-Mercapto-β,β-cyclopentamethylenepropionic acid), 2-(O-methyl)tyrosine]-arginine vasopressin”, in series [4], the “vasopressor antagonism (in words)” value is reported as “potent vasopressor antagonists”. In addition, in series [2], the “antidiuretic potency / activity (in words)” value is reported as “very low antidiuretic potency”.

In the case of “[1-(β-Mercapto-β,β-cyclopentamethylenepropionic acid] arginine vasopressin”, the “vasopressor antagonism (in words)” value in series [4] was “potent vasopressor antagonists”. Moreover, the “antidiuretic potency / activity (in words)” value in series [2] is on record as “very low antidiuretic potency”.

Take “[1-(β-mercapto-β,β-cyclopentamethylenepropionic acid), 2-D-tyrosine, 4-valine, 8-D-arginine] vasopressin [d(CH2)5 D-Tyr-VDAVP]”: the “anti-antidiuretic activity (in words)” value in series [5] was “anti-antidiuretics”.

Turning to “[1-(β-mercapto-β,β-cyclopentamethylenepropionic acid), 4-valine, 8-D-arginine] vasopressin”, the “vasopressor antagonism (in words)” value in series [4] is “potent antagonists of the vasopressor response to AVP”. For the same substance, the “antidiuretic potency / activity (in words)” value in series [2] is “weak antidiuretic activity”.

Regarding “[1-(β-mercapto-β,β-cyclopentamethylenepropionic acid)] oxytocin [d(CH2)5 OT]”, the “oxytocic activity (agonist / antagonist, in words)” value in series [1] is “potent antagonists of the oxytocic response to oxytocin”.

Turning to “[1-deaminopenicillamine, 4-valine, 8-D-arginine]vasopressin”, the “vasopressor antagonism (in words)” value in series [4] is listed as “potent antagonists of the vasopressor response to AVP”. In series [2], the “antidiuretic potency / activity (in words)” value is recorded as “weak antidiuretic activity”.

For “[1-deaminopenicillamine] oxytocin [dPOT]”, the “oxytocic activity (agonist / antagonist, in words)” value in series [1] is reported as “potent antagonists of the oxytocic response to oxytocin”.
